# According to paper PMC9555642 (PLoS ONE, 2022):
# Legend:
# HDAC4 = biological target: T1, HDAC4 (Homo sapiens, UniProt P56524); test: HDAC enzymatic activity (Eurofins); assay type: biochemical; details: Class IIA; ACY-1083 mean of two separate measurements, Ricolinostat and Tubastatin A one measurement
# T1 construct: purchased Eurofins Pharma Discovery Services 2493
# HDAC11 = biological target: T2, HDAC11 (Homo sapiens, UniProt Q96DB2); test: HDAC enzymatic activity (Eurofins); assay type: biochemical; details: Class IV; ACY-1083 mean of two separate measurements, Ricolinostat and Tubastatin A one measurement
# T2 construct: purchased Eurofins Pharma Discovery Services 2663
# T2 sequence (Q96DB2 1-347): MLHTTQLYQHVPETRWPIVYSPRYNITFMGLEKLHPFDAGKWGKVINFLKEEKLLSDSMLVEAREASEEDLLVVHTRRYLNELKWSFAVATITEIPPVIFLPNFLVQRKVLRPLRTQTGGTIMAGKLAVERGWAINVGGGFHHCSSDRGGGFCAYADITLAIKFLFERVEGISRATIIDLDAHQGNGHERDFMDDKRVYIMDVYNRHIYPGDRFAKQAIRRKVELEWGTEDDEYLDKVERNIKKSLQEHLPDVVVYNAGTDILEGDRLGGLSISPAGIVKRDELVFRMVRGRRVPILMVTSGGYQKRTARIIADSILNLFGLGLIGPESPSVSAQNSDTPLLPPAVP
# [1] = biological target: T3, dopamine active transporter (DAT) (Homo sapiens, UniProt Q01959); test: Secondary pharmacology panel (Eurofins); assay type: binding
# T3 construct: purchased Eurofins Pharma Discovery Services
# T3 sequence (Q01959 whole entry, species assumed): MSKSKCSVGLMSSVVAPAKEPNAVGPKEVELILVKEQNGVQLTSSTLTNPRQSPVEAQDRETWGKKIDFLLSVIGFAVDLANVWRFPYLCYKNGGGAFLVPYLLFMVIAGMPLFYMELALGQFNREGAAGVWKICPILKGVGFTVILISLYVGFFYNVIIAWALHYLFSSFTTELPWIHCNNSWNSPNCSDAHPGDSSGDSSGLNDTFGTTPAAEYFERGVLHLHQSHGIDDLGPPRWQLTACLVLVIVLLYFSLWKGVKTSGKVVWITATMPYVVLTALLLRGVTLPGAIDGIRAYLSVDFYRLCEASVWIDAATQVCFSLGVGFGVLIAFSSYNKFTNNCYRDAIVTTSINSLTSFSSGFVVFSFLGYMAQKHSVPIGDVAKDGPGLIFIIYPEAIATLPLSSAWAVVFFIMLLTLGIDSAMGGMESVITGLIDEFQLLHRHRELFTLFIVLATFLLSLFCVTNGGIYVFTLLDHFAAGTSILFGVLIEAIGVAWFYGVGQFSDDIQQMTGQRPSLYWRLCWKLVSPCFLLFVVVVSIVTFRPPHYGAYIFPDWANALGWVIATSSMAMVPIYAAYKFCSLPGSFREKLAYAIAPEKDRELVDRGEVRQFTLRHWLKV
# Protocol: (§1) Second pharmacology screening was performed at Eurofins Pharma Discovery Services in a panel of 190 in vitro radioligand binding and enzyme assays covering a diverse set of enzymes, receptors, ion channels, and transporters.
# Sigma-1 receptor = biological target: T4, Sigma-1 receptor (Homo sapiens, UniProt Q99720); test: Secondary pharmacology panel (Eurofins); assay type: binding
# T4 construct: purchased Eurofins Pharma Discovery Services
# T4 sequence (Q99720 whole entry, species assumed): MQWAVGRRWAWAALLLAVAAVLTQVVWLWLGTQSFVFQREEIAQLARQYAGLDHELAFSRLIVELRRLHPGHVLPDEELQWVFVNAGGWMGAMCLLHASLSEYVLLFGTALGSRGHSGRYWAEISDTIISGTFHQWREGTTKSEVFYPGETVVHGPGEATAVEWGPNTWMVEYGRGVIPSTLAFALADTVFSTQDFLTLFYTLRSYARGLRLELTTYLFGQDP
# Protocol: as §1
# COPD HBEC ALI cultures [2] = test: Cytokine release in basolateral supernatants (MSD), TNF challenge; assay type: cell-based, human; details: 10 μM, TNF 5, 20 and 50 ng/ml, day seven
# Protocol: TEER and permeability were measured after seven days.
# To assess cytokines released, basolateral supernatants were collected on day seven and immediately frozen at -80°C until MSD analysis of IL-6, CCL2 and CXCL10. In short, U-PLEX MSD plates (Mesoscale Discovery, Rockville, Maryland, USA) were coated, washed and stored overnight. Standard curves were prepared and added in duplicates on each plate. Supernatants were thawed on ice and added to the plates, which were incubated on an orbital shaker for one hour before sulfo-tagged antibodies were added and incubated for another hour. Plates were washed, read buffer added and read on MESO SECTOR S 600 (Mesoscale Discovery, Rockville, Maryland, USA). Data was plotted as fold change to DMSO control.
# COPD HBEC ALI cultures [3] = test: Mucociliary clearance (bead tracking), TNF challenge; assay type: cell-based, human; details: TNF 20 ng/ml, day ten, 3 COPD donors, p = 0.0026
# Protocol: In the TNF (20 ng/ml) challenged cultures, the apical surfaces were washed with pre-warmed PBS the day before addition of 50 μL of CountBright Absolute Counting beads (Invitrogen, Carlsbad, CA, USA) diluted 1:10 000 in PBS with Mg^2+ and Ca^2+. Inserts were transferred to a 12-well glass bottom plate (Cellvis, Mountain View, USA) and monitored in a Zeiss LSM 880 (Carl Zeiss AG, Oberkochen, Germany) at 37°C. Three regions in each well of each condition in three COPD donors were filmed and analyzed. Beads were tracked in the ImageJ software with the Fiji plugin Tracking and the mean velocity of each bead was plotted.
# [4] = tested on: healthy HBEC at ALI cultures; test: Ciliary beat frequency; assay type: cell-based, human; details: TNF-challenged healthy HBEC
# Protocol: For cilia beating frequency (CBF) and cell velocity measurements, donor cells of primary healthy HBECs were amplified on rat tail collagen I coated flasks and seeded on 12-mm-diameter Transwell inserts.
# CBF was quantified for the differentiated healthy HBECs treated with vehicle, TNF, and TNF + ACY-1083. The plates containing the pseudostratified epithelia were incubated at 37 °C with 5% CO2 in the 3i Marianis/Yokogawa Spinning-Disk Confocal microscope (Leica Microsystems, Sugar land, USA) as reported in our previous publications. High-speed time-lapse videos were taken at 32X air at 100 Hz with a total of 250 frames using a scientific Hamamatsu C11440-42U30 CMOS camera (Bridgewater, USA). Five areas were imaged per insert. A Matlab (R2020a) script (validated against SAVA) (previously described in [58] was used to determine average CBF per video, to generate a heat map indicating CBF.
# T1 sequence (P56524 whole entry): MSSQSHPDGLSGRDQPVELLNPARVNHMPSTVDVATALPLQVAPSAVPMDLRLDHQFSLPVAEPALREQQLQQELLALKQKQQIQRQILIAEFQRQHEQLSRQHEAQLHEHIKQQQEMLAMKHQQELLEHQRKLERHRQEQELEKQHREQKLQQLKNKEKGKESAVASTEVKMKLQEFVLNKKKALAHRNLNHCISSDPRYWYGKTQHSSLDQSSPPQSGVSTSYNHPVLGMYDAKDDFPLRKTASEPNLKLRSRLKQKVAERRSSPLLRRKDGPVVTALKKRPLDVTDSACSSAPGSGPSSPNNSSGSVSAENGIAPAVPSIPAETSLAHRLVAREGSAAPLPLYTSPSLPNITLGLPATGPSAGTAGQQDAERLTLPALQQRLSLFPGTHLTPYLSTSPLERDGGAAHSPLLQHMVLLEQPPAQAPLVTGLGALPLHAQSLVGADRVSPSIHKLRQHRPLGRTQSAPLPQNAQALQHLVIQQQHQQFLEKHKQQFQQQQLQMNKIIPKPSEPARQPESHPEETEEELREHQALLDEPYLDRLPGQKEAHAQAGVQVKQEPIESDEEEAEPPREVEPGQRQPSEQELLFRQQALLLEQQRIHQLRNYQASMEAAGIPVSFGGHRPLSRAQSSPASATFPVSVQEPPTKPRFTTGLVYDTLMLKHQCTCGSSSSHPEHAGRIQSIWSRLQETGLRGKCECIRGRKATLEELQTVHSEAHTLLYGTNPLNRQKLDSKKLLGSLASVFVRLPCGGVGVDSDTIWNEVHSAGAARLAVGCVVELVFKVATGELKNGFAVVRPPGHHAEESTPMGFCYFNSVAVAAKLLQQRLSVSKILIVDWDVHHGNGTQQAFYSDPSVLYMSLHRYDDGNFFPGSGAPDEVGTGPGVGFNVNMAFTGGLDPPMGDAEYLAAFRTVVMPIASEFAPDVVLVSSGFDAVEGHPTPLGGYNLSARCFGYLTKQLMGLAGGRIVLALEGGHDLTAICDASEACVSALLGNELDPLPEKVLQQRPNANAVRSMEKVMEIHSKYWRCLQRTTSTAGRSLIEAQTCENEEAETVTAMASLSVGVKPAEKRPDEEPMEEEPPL
substance,measurement,setting,value
ACY-1083,IC50,HDAC4,12.5 µM
same,IC50,HDAC11,18.2 µM
same,IC50,[1],0.37 µM
same,IC50,Sigma-1 receptor,17 µM
same,CCL2 protein induction in basolateral supernatant,COPD HBEC ALI cultures [2],reduced
same,CXCL10 protein induction in basolateral supernatant,COPD HBEC ALI cultures [2],reduced
same,IL-6 protein induction in basolateral supernatant,COPD HBEC ALI cultures [2],reduced
same,bead velocity (mucociliary clearance),COPD HBEC ALI cultures [3],significantly protected from reduction in speed
same,CBF,[4],no effect
